Measured values as given in patent publication US6020370A, “Bridged cyclic amino acids as pharmaceutical agents” (Warner-Lambert Company, priority 1998, dated 2000).

Target: T1, α2 δ subunit of a calcium channel (Sus scrofa, UniProt A0A287BIN3)
T1 construct: derived from porcine brain tissue; from tissue; host or cells: porcine brain tissue
Experiment: Radioligand binding assay using [^3 H]gabapentin and the α2 δ subunit derived from porcine brain tissue
Details: Table 1, [^3 H]gabapentin

T1 sequence (A0A287BIN3 entry or part of it): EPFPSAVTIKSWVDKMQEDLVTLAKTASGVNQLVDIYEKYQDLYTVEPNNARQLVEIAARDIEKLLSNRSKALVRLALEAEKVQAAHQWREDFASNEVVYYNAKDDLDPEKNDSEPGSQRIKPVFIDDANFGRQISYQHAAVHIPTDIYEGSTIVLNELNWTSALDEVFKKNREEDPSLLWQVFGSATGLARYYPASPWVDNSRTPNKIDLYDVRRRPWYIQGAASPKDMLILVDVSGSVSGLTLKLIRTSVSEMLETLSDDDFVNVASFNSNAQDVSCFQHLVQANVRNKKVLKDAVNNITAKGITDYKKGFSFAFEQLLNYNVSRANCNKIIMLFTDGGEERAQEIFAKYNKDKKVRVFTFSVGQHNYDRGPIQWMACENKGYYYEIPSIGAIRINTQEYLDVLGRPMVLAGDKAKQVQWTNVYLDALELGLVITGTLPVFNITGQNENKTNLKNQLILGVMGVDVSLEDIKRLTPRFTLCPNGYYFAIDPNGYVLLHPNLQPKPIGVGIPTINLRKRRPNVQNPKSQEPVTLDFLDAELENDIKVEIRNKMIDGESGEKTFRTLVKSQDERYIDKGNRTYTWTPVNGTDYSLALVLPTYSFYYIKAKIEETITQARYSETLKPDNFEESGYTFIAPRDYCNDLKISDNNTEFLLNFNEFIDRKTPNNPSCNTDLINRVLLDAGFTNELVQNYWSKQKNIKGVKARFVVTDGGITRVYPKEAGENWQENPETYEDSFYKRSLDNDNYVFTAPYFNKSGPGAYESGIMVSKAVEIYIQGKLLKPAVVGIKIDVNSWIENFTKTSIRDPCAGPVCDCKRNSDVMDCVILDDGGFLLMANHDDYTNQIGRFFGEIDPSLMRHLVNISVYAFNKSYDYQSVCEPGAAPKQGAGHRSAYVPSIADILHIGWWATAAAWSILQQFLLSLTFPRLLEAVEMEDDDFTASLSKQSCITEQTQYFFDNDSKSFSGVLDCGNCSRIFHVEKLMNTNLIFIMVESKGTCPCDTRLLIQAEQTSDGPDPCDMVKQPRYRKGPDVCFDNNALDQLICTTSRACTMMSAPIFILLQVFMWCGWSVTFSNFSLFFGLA

SMILES	IC50 [nM]
NCC1(CC(=O)O)CC2CCC1C2 (racemic) [Compound 5]	103
NCC1(CC(=O)O)C2CCCC1CCC2 (centres unmarked) [Compound 3]	47
